The target of data set [1] is T1, 5-hydroxytryptamine receptor 1A (Homo sapiens, UniProt P08908).
T1 sequence (P08908 whole entry): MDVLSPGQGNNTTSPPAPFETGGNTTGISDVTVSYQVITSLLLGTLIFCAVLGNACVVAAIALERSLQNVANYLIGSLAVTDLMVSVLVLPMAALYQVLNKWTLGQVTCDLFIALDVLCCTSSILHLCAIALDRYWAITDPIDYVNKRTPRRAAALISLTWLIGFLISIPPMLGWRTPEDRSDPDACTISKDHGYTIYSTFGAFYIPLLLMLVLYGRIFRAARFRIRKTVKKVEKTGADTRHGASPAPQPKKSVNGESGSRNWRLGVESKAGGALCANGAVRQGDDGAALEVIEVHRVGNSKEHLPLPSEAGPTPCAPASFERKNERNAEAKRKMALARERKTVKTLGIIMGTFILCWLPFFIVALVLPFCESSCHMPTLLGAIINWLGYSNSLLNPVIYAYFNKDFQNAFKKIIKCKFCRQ
As to the kind of experiment: Displacement of [3H]-8-OH-DPAT from human 5-HT1A receptor expressed in CHO-K1 cell membranes after 60 mins by microbeta scintillation counting analysis. In general terms: Displacement assays read how much labelled ligand stays bound in the presence of the test substance.

Data set [2] addresses 5-hydroxytryptamine receptor 2A (Homo sapiens, UniProt P28223). Description: Displacement of [3H]-ketanserin from human 5-HT2A receptor expressed in CHO-K1 cell membranes after 60 mins by microbeta scintillation counting analysis. Format: cell-based.
The target of data set [3] is T2, 5-hydroxytryptamine receptor 1A (Rattus norvegicus) (UniProt P19327).
T2 sequence (whole entry): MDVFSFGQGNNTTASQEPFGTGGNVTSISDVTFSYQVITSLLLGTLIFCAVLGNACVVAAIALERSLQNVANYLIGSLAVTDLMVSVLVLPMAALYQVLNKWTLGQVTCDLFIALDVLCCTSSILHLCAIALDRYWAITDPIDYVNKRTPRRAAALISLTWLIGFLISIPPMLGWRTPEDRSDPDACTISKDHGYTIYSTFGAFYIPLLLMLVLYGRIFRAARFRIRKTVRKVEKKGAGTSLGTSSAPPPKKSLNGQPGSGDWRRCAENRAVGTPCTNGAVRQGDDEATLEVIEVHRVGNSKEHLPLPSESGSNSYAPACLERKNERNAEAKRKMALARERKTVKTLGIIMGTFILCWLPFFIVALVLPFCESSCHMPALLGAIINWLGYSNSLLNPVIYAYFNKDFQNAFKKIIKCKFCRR
As to the kind of experiment: Agonist activity at 5-HT1A receptor in Sprague-Dawley rat hippocampal membranes at 10^-10 to 10^-5 M after 90 mins by microbeta scintillation counting based [35S]GTPgammaS binding assay relative to control. Type of data set: functional.

For data set [4], the target named is T3, 5-hydroxytryptamine receptor 1A (Rattus norvegicus, UniProt P19327).
T3 sequence (P19327 whole entry): T2 sequence (whole entry)
As to the kind of experiment: Agonist activity at 5-HT1A receptor in Sprague-Dawley rat hippocampal membranes after 90 mins by microbeta scintillation counting based [35S]GTPgammaS binding assay. Type of data set: functional.

In data set [5] the target is T2, 5-hydroxytryptamine receptor 1A (Rattus norvegicus). As to the kind of experiment: Antagonist activity at 5-HT1A receptor in Sprague-Dawley rat hippocampal membranes assessed as inhibition of 8-OH-DPAT-induced receptor activation at 10^-10 to 10^-5 M after 90 mins by microbeta scintillation counting based [35S]GTPgammaS binding assay relative to control. Type of data set: functional. (In general: GTPγS is a poorly hydrolysed GTP analogue; its binding reports G protein activation.)

For data set [6], the target named is T3, 5-hydroxytryptamine receptor 1A. As to the kind of experiment: Antagonist activity at 5-HT1A receptor in Sprague-Dawley rat hippocampal membranes assessed as inhibition of 8-OH-DPAT-induced receptor activation after 90 mins by microbeta scintillation counting based [35S]GTPgammaS binding assay. Type of data set: functional.
The subject of data set [7] is Mus musculus. As to the kind of experiment: Toxicity in Balb/c mouse assessed as alterations in despair-related locomotor activity at 0.3 to 10 mg/kg, ip administered 30 mins prior to test. To be noted: in vivo, 0.5 h. Type of data set: organism-based.
In data set [8] the test system is Mus musculus. As to the kind of experiment: Toxicity in Balb/c mouse assessed as alterations in visible locomotor activity at 0.3 to 10 mg/kg, ip administered 30 mins prior to test. Type of data set: organism-based. To be noted: in vivo, 0.5 h.
In data set [9] the test system is Mus musculus. As to the kind of experiment: Antidepressant activity in Balb/c mouse assessed as decrease in immobility time administered ip 30 mins prior to test measured for 6 mins by tail suspension test. Format: functional, organism-based.
The subject of data set [10] is Mus musculus. Description: Pro-depressant activity in Balb/c mouse assessed as decrease in immobility time administered ip 30 mins prior to test measured for 6 mins by tail suspension test. To be noted: in vivo, 0.1 h. Format: ADME, organism-based.
Data set [11] concerns Mus musculus. Description: Antidepressant activity in Balb/c mouse assessed as decrease in immobility time at 0.3 to 1 mg/kg, ip administered 30 mins prior to test measured for 6 mins by tail suspension test. Type of data set: functional, organism-based.
The test system of data set [12] is Mus musculus. As to the kind of experiment: Pro-depressant activity in Balb/c mouse assessed as decrease in immobility time at 3 to 10 mg/kg, ip administered 30 mins prior to test measured for 6 mins by tail suspension test. Type of data set: ADME, organism-based. As to conditions: in vivo, 0.1 h.
The species entered for data set [13] is Mus musculus. Description: Pro-depressant activity in Balb/c mouse assessed as decrease in home cage activity. Format: ADME, organism-based. To be noted: in vivo.

Active and inactive are the calls of the source. The rule behind the calls is not given here.

Sequence of 5-hydroxytryptamine receptor 2A (P28223 whole entry): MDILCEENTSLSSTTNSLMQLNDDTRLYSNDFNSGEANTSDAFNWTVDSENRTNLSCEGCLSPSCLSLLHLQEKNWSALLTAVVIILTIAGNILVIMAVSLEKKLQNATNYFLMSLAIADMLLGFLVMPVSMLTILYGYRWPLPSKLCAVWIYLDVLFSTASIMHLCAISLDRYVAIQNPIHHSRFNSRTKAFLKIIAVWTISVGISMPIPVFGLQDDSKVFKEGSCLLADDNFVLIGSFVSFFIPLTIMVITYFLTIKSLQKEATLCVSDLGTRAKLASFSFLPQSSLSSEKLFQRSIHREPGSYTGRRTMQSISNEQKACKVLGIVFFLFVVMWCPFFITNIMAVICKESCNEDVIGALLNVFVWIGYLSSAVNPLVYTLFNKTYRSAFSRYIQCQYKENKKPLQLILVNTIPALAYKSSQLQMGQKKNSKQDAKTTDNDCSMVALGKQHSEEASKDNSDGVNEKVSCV

In general, Ki refers to a dissociation constant, usually derived from enzyme kinetics or from competition with a known ligand. A high value points to lower affinity. Turning to `CC(=O)c1c(OCCCCN2CCN(c3ccccc3Br)CC2)ccc2c(C)cc(=O)oc12`, the Ki came to 1.5 nM in data set [1] and 10 nM in data set [2].
In general, Emax refers to the maximal effect, on the per cent scale that the assay sets. What is called EC50 is the concentration giving half of the maximal effect. In general, inhibition refers to how much of the control response was suppressed. With `COc1ccccc1N1CCN(CCCOc2ccc3c(C)cc(=O)oc3c2C(C)=O)CC1`, the inhibition constant Ki in data set [1] was 0.6 nM; in [2], 8 nM. Moreover, in data set [3], the maximum response (Emax) came out at 108%. Also, the figures for the EC50 in data set [4] and in data set [6] were 2 nM and 631 nM, respectively. Further, the inhibition in data set [5] came out at 70%. Moreover, the Activity result in data set [7] and in [8] was “Non-Toxic” throughout.
As to `CC(=O)c1c(OCCCN2CCN(c3cc(C)cc(C)c3)CC2)ccc2c(C)cc(=O)oc12`, the Ki was determined as 0.9 nM in [1] and 12.5 nM in data set [2].
On the same counts, the results for `COc1ccccc1N1CCN(CCCCOc2ccc3c(C)cc(=O)oc3c2C(C)=O)CC1` are 1 nM and 56 nM.
For `CC(=O)c1c(OCCCN2CCN(c3ccccc3C(F)(F)F)CC2)ccc2c(C)cc(=O)oc12`, in that order: 8.8 nM and 20 nM.
On the same counts, the results for `CC(=O)c1c(OCCCN2CCN(c3cc(C)ccc3C)CC2)ccc2c(C)cc(=O)oc12` are 14 nM and 102 nM.
For the compound `CC(=O)c1c(OCCCCN2CCN(c3cc(C)ccc3C)CC2)ccc2c(C)cc(=O)oc12`, the results for the Ki in [1] and in data set [2] were 5.4 nM and 46.8 nM, respectively.
`CNCCC(Oc1ccc(C(F)(F)F)cc1)c1ccccc1` (configuration not stated): the Activity entry in data set [9] is “Dose-dependent effect”.
As to `CC(=O)c1c(OCCCN2CCN(c3ccccc3Br)CC2)ccc2c(C)cc(=O)oc12`, the results for the inhibitory constant (Ki) in data set [1] and in data set [2] were 0.5 nM and 7 nM, respectively. Besides, the Emax in [3] came out at 112%. Further, the values for the EC50 in data set [4] and in [6] were 39.8 nM and 126 nM, respectively. Moreover, the inhibition in data set [5] came out at 82%. The Activity entry in data set [10] is “Dose-dependent effect”; in data set [12], “Toxic”; in data set [13], “Toxic”. Besides, the result in [11] was inactive.
`CC(=O)c1c(OCCCN2CCN(c3cccc(Br)c3)CC2)ccc2c(C)cc(=O)oc12`: the Ki in [1] was 3.5 nM; in data set [2], 6 nM.
On the same counts, the results for `CC(=O)c1c(OCCCCN2CCN(c3ccccc3Cl)CC2)ccc2c(C)cc(=O)oc12` are 0.9 nM and 20 nM.
Turning to `CC(=O)c1c(OCCCCN2CCN(c3cccc(Br)c3)CC2)ccc2c(C)cc(=O)oc12`, the Ki is 2.5 nM in data set [1] and 6.5 nM in data set [2].
On the same counts, the results for `CC(=O)c1c(OCCCCN2CCN(c3cccc(F)c3)CC2)ccc2c(C)cc(=O)oc12` are 50 nM and 400 nM.
On the same counts, the results for `CC(=O)c1c(OCCCCN2CCN(c3cc(C)cc(C)c3)CC2)ccc2c(C)cc(=O)oc12` are 3.7 nM and 58 nM.
For `CC(=O)c1c(OCCCN2CCN(c3cccc(F)c3)CC2)ccc2c(C)cc(=O)oc12`, in that order: 1350 nM and 408 nM.
Regarding `CC(=O)c1c(OCCCCN2CCN(c3ccccc3C(F)(F)F)CC2)ccc2c(C)cc(=O)oc12`, the inhibition constant (Ki) in data set [1] came out at 11 nM; in [2] it was 48.7 nM.
On the same counts, the results for `CC(=O)c1c(OCCCN2CCN(c3ccccc3Cl)CC2)ccc2c(C)cc(=O)oc12` are 2 nM and 22 nM.
